{
  "source": "paper PMC10178848",
  "about": "“Modulating fast skeletal muscle contraction protects skeletal muscle in animal models of Duchenne muscular dystrophy” (The Journal of Clinical Investigation, 2023)",
  "key": {"[1]": {"target": "T1, SRC (Homo sapiens, UniProt P12931)", "T1 construct": "purchased Eurofins DiscoverX (KINOMEscan; SAFETYscan E/IC50 ELECT)", "assay": "KINOMEscan scanEDGE", "format": "binding", "conditions": "20 uM"}, "[2]": {"target": "T2, MKNK2 (Homo sapiens, UniProt Q9HBH9)", "T2 construct": "purchased Eurofins DiscoverX (KINOMEscan; SAFETYscan E/IC50 ELECT)", "T2 sequence (Q9HBH9 whole entry)": "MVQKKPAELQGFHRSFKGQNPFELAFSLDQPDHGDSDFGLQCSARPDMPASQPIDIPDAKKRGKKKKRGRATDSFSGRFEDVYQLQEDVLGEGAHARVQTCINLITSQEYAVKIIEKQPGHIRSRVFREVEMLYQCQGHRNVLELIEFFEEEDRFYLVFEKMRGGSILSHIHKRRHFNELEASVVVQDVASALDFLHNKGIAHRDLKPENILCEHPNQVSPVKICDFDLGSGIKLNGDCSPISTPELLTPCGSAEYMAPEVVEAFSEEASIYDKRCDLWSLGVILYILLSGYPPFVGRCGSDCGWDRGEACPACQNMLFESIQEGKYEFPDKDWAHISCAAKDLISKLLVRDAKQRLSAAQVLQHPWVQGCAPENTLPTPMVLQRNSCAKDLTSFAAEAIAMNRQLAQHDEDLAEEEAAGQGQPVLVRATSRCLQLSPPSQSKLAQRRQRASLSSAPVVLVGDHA", "assay": "KINOMEscan scanEDGE", "format": "binding", "conditions": "20 uM"}, "[3]": {"assay": "Muscle concentration in GRMD dogs", "format": "in vivo, dog", "conditions": "end of the dosing period", "protocol": "We viewed data in mice as encouraging but were interested in testing EDG-5506 in dystrophic golden retriever (GRMD) dogs; their muscle composition and function more closely resemble that of humans ([40]). Older (7 months of age), disease-stable GRMD were dosed in 2-week periods with vehicle, then EDG-5506, followed by a vehicle washout. As fast fiber atrophy has been documented in DMD dogs ([16]), we confirmed sustained fast myosin from biopsies of age-matched WT/GRMD gastrocnemius muscle (Supplemental Figure 6A). EDG-5506 concentration was measured from a muscle biopsy at the end of the dosing period (4,951 ± 217 ng/g muscle). EDG-5506 administration was associated with a more than 50% decrease in CK, returning to pretreatment levels after compound washout (Figure 6A). Physical activity normally increases CK in GRMD ([41]), raising the question of whether EDG-5506 lowered CK via decreasing physical activity. We sought to test the effect of EDG-5506 on habitual activity in the same dogs using an activity monitor ([42]). EDG-5506 improved average daily activity by more than 30% (Figure 6B and Supplemental Figure 6B) with reversible increases in time active and decreases in time resting (Figure 6C). One GRMD used in the biomarker study was too severely progressed to participate in this study."}, "[4]": {"target": "T3, JAK3(JH1domain-catalytic) (Homo sapiens, UniProt P52333)", "T3 construct": "JAK3(JH1domain-catalytic); purchased Eurofins DiscoverX (KINOMEscan; SAFETYscan E/IC50 ELECT)", "T3 sequence (P52333 811-1124 limits assumed)": "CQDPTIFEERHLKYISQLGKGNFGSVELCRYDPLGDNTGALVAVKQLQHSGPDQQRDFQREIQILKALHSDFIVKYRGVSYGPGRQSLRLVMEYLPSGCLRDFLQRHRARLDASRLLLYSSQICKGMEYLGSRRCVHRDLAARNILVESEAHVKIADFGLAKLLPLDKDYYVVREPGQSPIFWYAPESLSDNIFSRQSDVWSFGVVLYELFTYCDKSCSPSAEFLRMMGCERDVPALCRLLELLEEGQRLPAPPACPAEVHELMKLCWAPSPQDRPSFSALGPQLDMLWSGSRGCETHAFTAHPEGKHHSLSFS", "assay": "KINOMEscan scanEDGE", "format": "binding", "conditions": "20 uM"}, "[5]": {"target": "T4, AR (Homo sapiens, UniProt P10275)", "T4 construct": "purchased Eurofins DiscoverX (KINOMEscan; SAFETYscan E/IC50 ELECT)", "T4 sequence (P10275 whole entry)": "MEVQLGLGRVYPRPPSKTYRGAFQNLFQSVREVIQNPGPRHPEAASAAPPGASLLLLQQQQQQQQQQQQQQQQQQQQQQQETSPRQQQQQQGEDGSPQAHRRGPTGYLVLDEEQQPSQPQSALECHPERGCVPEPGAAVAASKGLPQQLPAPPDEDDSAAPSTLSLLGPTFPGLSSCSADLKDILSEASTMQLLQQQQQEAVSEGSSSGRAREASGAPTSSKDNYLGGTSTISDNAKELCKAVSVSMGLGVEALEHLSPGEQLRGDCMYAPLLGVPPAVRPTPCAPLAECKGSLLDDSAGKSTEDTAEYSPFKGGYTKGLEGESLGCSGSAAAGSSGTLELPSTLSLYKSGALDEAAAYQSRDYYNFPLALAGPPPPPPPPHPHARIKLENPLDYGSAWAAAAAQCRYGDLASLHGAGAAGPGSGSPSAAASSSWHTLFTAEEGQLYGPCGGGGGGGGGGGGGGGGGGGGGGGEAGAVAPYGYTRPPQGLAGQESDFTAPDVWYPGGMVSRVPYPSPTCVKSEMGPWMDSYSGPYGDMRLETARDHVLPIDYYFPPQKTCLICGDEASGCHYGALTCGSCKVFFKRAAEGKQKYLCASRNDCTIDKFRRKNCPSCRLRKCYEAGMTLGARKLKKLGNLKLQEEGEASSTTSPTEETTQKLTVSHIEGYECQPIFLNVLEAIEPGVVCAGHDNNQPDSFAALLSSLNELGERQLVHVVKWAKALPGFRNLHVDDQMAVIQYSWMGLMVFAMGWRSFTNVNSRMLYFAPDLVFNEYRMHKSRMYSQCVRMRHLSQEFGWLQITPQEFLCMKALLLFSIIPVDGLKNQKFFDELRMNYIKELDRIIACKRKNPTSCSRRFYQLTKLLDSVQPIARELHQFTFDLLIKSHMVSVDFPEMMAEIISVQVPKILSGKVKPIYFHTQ", "assay": "SAFETYscan NHR Nuclear Translocation", "format": "cell-based", "design": "dose or concentration left out as unconfirmed", "protocol": "(§1) The specificity of EDG-5506 for fast skeletal myosin over other, unrelated proteins was confirmed using two off-target binding and activity screens. […] A second off-target panel (SAFETYscan E/IC50 ELECT, Eurofins DiscoverX) tested in vitro enzyme activity against 78 proteins, including GPCR, ion channel, kinases, nuclear hormone receptors, and transporters. In all assays, the IC50 of EDG-5506 was more than 10 μM (Supplemental Data File 1)."}, "[6]": {"target": "mouse gastrocnemius myofibrils", "assay": "Myofibril ATPase, mouse gastrocnemius", "format": "biochemical", "conditions": "21% IIa, 15% IIx, 56% IIb"}, "[7]": {"target": "T5, ALK (Homo sapiens, UniProt Q9UM73)", "T5 construct": "purchased Eurofins DiscoverX (KINOMEscan; SAFETYscan E/IC50 ELECT)", "T5 sequence (Q9UM73 19-1620)": "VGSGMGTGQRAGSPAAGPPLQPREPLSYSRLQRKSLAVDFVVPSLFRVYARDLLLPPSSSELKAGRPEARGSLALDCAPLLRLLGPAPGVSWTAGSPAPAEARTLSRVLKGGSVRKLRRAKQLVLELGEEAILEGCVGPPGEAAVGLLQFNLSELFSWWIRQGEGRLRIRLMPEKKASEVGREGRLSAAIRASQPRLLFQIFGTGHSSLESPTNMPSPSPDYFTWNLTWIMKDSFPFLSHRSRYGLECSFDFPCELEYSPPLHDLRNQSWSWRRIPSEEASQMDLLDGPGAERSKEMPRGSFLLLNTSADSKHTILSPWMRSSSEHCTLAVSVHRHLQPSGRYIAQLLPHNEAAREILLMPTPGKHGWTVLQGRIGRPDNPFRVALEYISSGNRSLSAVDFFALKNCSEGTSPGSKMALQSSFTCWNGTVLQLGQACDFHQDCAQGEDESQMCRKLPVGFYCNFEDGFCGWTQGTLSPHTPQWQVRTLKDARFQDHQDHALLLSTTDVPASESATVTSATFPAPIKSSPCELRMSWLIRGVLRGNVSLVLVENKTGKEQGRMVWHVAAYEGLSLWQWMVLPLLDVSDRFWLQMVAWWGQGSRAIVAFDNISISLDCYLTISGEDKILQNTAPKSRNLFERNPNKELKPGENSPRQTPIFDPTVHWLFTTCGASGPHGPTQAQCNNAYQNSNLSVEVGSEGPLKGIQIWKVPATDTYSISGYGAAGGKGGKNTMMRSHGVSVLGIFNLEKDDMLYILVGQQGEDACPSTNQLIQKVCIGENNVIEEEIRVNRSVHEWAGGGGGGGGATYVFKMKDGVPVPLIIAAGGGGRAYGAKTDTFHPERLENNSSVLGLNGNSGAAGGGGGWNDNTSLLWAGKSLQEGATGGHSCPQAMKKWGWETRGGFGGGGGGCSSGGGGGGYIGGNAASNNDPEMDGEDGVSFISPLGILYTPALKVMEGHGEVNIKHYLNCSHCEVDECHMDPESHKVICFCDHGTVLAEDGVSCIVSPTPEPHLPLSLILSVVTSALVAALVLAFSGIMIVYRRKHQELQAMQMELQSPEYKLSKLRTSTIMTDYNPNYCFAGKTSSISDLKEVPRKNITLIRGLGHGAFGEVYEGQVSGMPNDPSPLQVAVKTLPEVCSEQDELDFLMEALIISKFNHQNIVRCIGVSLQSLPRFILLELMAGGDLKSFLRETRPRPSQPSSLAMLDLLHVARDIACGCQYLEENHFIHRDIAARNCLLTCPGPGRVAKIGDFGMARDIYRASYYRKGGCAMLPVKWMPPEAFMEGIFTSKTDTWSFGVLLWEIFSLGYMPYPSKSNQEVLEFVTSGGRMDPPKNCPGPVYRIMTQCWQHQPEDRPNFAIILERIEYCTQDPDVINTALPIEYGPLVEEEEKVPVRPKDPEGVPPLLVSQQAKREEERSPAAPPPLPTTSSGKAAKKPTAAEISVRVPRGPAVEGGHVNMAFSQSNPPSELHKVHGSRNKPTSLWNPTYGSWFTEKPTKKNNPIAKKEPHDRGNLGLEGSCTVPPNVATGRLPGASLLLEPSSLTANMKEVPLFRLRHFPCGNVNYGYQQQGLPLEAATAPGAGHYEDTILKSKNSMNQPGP", "assay": "KINOMEscan scanEDGE", "format": "binding", "conditions": "20 uM"}, "[8]": {"target": "T6, CSNK1D (Homo sapiens, UniProt P48730)", "T6 construct": "purchased Eurofins DiscoverX (KINOMEscan; SAFETYscan E/IC50 ELECT)", "T6 sequence (P48730 whole entry)": "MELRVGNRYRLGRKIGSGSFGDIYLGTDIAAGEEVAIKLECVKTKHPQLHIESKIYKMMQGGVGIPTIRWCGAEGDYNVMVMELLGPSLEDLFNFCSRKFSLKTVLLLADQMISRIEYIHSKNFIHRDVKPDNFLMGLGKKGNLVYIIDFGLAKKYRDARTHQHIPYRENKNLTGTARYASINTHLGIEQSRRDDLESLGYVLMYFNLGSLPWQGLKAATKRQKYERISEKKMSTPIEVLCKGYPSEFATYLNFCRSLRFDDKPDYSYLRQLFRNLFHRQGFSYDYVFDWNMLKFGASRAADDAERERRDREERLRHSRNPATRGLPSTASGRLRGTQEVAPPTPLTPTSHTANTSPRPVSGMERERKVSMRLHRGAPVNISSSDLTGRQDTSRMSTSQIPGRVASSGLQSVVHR", "assay": "KINOMEscan scanEDGE", "format": "binding", "conditions": "20 uM"}, "[9]": {"target": "T7, FGFR3 (Homo sapiens, UniProt P22607)", "T7 construct": "purchased Eurofins DiscoverX (KINOMEscan; SAFETYscan E/IC50 ELECT)", "assay": "KINOMEscan scanEDGE", "format": "binding", "conditions": "20 uM"}, "[10]": {"target": "T8, smooth muscle myosin S1 isolated from chicken gizzard (Gallus gallus, UniProt P10587)", "T8 construct": "purchased Cytoskeleton Inc; host or cells: chicken gizzard", "assay": "Actin-activated myosin S1 ATPase, smooth muscle", "format": "biochemical", "protocol": "Smooth muscle chicken gizzard S1 was purchased from Cytoskeleton Inc. Other myosin S1 was prepared via published protocols ([21]). Briefly, fresh rabbit psoas and frozen porcine ventricular muscle (Pel-freez) were extracted in 0.3 M KCl, 0.15 M KH2PO4, 1 mM EGTA, 1 mM ATP, 1 mM DTT, pH 6.5, at 4°C. Full-length myosin was purified from each extract via low-ionic precipitations with final precipitation into PM12 buffer (12 mM PIPES, pH 7.0, 2 mM MgCl2). Purified myosin was resuspended in PIPES/EDTA buffer (20 mM PIPES, pH 6.8, 10 mM EDTA, 1 mM DTT) and reacted with 0.2 mg/mL α-chymotrypsin for 30 minutes at room temperature. Proteolysis was quenched with PMSF (final concentration 100 μM), and the reaction was centrifuged for 45 minutes at 230,000g. S1 fragment in the supernatant was dialyzed into PM12 with 0.02% sodium azide and clarified by centrifugation. Sucrose was added to 10% w/v and flash-frozen in liquid N2 and stored at –80°C. […]\nA lactate dehydrogenase/pyruvate kinase enzyme-coupled system ([62]) was used to monitor ATP hydrolysis rates in various muscle preparations. […] A multidrop cassette (Thermo Fisher Scientific) dispensed 10 μL of the coupled enzyme system, calcium, and myofibrils to 10 μL ATP, NADH and PEP to initiate the reaction prior to reading on a plate reader (Envision, Perkin Elmer) for 10 minutes per plate at room temperature. […]"}, "[11]": {"target": "T9, PDE3A (Homo sapiens, UniProt Q14432)", "T9 construct": "purchased Eurofins DiscoverX (KINOMEscan; SAFETYscan E/IC50 ELECT)", "assay": "SAFETYscan Enzymatic", "format": "biochemical", "design": "dose or concentration left out as unconfirmed", "conditions": "read-out: Max Response (%) (Antagonist)", "protocol": "as §1"}, "[12]": {"target": "T10, COX2 (Homo sapiens, UniProt P35354)", "T10 construct": "purchased Eurofins DiscoverX (KINOMEscan; SAFETYscan E/IC50 ELECT)", "assay": "SAFETYscan Enzymatic", "format": "biochemical", "design": "dose or concentration left out as unconfirmed", "conditions": "read-out: Max Response (%) (Antagonist)", "protocol": "as §1"}, "[13]": {"target": "T11, AChE (Homo sapiens, UniProt P22303)", "T11 construct": "purchased Eurofins DiscoverX (KINOMEscan; SAFETYscan E/IC50 ELECT)", "T11 sequence (P22303 32-614)": "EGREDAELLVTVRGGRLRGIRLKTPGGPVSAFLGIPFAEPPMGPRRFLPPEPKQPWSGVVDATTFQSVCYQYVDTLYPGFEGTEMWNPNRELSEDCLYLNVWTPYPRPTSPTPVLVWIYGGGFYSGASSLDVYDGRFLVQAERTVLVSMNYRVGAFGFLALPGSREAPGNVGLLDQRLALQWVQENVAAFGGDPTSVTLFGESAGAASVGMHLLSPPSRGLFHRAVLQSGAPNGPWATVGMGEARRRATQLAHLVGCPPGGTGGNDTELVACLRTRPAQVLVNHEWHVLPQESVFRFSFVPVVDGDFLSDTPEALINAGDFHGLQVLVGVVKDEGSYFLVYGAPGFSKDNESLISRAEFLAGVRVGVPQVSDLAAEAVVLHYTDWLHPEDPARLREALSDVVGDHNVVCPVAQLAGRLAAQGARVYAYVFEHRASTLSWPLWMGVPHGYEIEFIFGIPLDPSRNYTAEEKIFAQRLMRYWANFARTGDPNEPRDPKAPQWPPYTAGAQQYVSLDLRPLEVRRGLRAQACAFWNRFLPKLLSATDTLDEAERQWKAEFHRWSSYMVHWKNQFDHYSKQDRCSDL", "assay": "SAFETYscan Enzymatic", "format": "biochemical", "design": "dose or concentration left out as unconfirmed", "conditions": "read-out: Max Response (%) (Antagonist)", "protocol": "as §1"}, "[14]": {"target": "T12, MAOA (Homo sapiens, UniProt P21397)", "T12 construct": "purchased Eurofins DiscoverX (KINOMEscan; SAFETYscan E/IC50 ELECT)", "assay": "SAFETYscan Enzymatic", "format": "biochemical", "design": "dose or concentration left out as unconfirmed", "conditions": "read-out: Max Response (%) (Antagonist)", "protocol": "as §1"}, "[15]": {"target": "T13, COX1 (Homo sapiens, UniProt P23219)", "T13 construct": "purchased Eurofins DiscoverX (KINOMEscan; SAFETYscan E/IC50 ELECT)", "assay": "SAFETYscan Enzymatic", "format": "biochemical", "design": "dose or concentration left out as unconfirmed", "conditions": "read-out: Max Response (%) (Antagonist)", "protocol": "as §1"}, "[16]": {"target": "T14, PDE4D2 (Homo sapiens, UniProt Q08499)", "T14 construct": "purchased Eurofins DiscoverX (KINOMEscan; SAFETYscan E/IC50 ELECT)", "T14 sequence (Q08499 303-809 limits assumed)": "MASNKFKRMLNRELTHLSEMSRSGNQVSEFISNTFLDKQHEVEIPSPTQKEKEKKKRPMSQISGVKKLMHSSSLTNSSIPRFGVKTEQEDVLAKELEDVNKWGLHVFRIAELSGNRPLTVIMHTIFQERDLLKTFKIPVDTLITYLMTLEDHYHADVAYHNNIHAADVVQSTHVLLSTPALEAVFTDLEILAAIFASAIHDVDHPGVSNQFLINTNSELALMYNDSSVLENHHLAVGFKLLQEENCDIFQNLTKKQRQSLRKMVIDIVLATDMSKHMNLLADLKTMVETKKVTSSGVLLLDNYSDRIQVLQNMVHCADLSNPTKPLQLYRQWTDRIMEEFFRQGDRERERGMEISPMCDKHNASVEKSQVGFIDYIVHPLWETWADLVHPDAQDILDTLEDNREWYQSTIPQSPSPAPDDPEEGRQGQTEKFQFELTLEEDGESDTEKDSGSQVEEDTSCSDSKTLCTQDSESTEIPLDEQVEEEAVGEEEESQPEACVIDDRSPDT", "assay": "SAFETYscan Enzymatic", "format": "biochemical", "design": "dose or concentration left out as unconfirmed", "conditions": "read-out: Max Response (%) (Antagonist)", "protocol": "as §1"}},
  "note": "Read-outs that look alike come from different tables or passages of the source.",
  "data": [
    {"smiles": "O=c1ccc(-c2cnc(OCC(F)(F)F)nc2)nn1Cc1cncc(F)c1", "note": "[EDG-5506]", "values": [
      {"measurement": "binding, % of control", "setting": "[1]", "value": "100 % of control"},
      {"measurement": "binding, % of control", "setting": "[2]", "value": "92 % of control"},
      {"measurement": "EDG-5506 concentration in muscle biopsy", "setting": "[3]", "value": "4,951 ± 217 ng/g muscle"},
      {"measurement": "binding, % of control", "setting": "[4]", "value": "100 % of control"},
      {"measurement": "Emax", "setting": "[5]; read-out: Max Response (%) (Agonist)", "value": 0, "unit": "%"},
      {"measurement": "Emax", "setting": "[5]; read-out: Max Response (%) (Antagonist)", "value": 0, "unit": "%"},
      {"measurement": "IC50", "setting": "[6]", "value": 400, "unit": "nM"},
      {"measurement": "binding, % of control", "setting": "[7]", "value": "95 % of control"},
      {"measurement": "binding, % of control", "setting": "[8]", "value": "94 % of control"},
      {"measurement": "binding, % of control", "setting": "[9]", "value": "96 % of control"},
      {"measurement": "IC50", "setting": "[10]", "value": "> 100000", "unit": "nM"},
      {"measurement": "Emax", "setting": "[11]", "value": 0.91, "unit": "%"},
      {"measurement": "Emax", "setting": "[12]", "value": 3.26, "unit": "%"},
      {"measurement": "Emax", "setting": "[13]", "value": 16.4, "unit": "%"},
      {"measurement": "Emax", "setting": "[14]", "value": 7.79, "unit": "%"},
      {"measurement": "Emax", "setting": "[15]", "value": 4.78, "unit": "%"},
      {"measurement": "Emax", "setting": "[16]", "value": 7.16, "unit": "%"}
    ]}
  ]
}
